The values below come from patent US20150196033A1, “PESTICIDAL COMPOSITIONS AND PROCESSES RELATED THERETO” (priority 2012, published 2015).

Format in all cases: in vivo
In data set [1] the test system is Corn Earworm (CEW) (Helicoverpa zea). Description: Bioassay on Corn Earworm (CEW), 128-well diet tray assay. The conditions noted are these: second instar larvae, five to seven days; for mortality at 50 µg/cm2 / mortality at 0.5 µg/cm2: Helicoverpa zea, 168 h; for mortality at 50 µg/cm2: read-out: Rating CEW (% Control (or Mortality)); for mortality at 0.5 µg/cm2: 0.5 μg/cm2 on artificial diet, read-out: Rating CEW (% Control (or Mortality)), *Tested at 0.5 μg/cm2. An outline of the steps: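 Helicoverpa zea larvae in 128-well diet trays, held at 25 °C, 14:10 light-dark for five to seven days. Percent mortality scored per well and averaged over eight wells.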

Data set [2] deals with Beet Armyworm (BAW) (Spodoptera exigua). The data set is described as follows: Bioassay on Beet Armyworm (BAW), 128-well diet tray assay. The note with it: 50 μg/cm2 on artificial diet, second instar larvae, five to seven days; for mortality at 50 µg/cm2: Spodoptera exigua, 168 h, read-out: Rating BAW (% Control (or Mortality)). In outline:
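Spodoptera exigua larvae on diet trays held 5–7 days at 25 °C, 14:10 light-dark. Percent mortality scored per well and averaged over eight wells.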

The subject of data set [3] is Green Peach Aphid (GPA) (Myzus persicae). The data set is described as follows: Bioassay on Green Peach Aphid (GPA), foliar spray on cabbage seedlings. The note with it: 200 ppm foliar spray on cabbage seedlings, graded after three days, Abbott corrected % control; for mortality at 200 ppm: Myzus persicae, 72 h, read-out: Rating GPA (% Control (or Mortality)). As to the method:
Certain molecules disclosed in this document were tested against GPA using procedures described in the following example. In the reporting of the results, the “GPA Rating Table” was used (See Table Section).
Cabbage seedlings grown in 3-inch pots, with 2-3 small (3-5 cm) true leaves, were used as test substrate. The seedlings were infested with 20-50 GPA (wingless adult and nymph stages) one day prior to chemical application. Four pots with individual seedlings were used for each treatment. Test compounds (2 mg) were dissolved in 2 mL of acetone/MeOH (1:1) solvent, forming stock solutions of 1000 ppm test compound. The stock solutions were diluted 5× with 0.025% Tween 20 in H2O to obtain the solution at 200 ppm test compound. A hand-held aspirator-type sprayer was used for spraying a solution to both sides of […] leaves until runoff. Reference plants (solvent check) were sprayed with the diluent only containing 20% by volume of acetone/MeOH (1:1) solvent. Treated plants were held in a holding room for three days at approximately 25° C. and ambient relative humidity (RH) prior to grading. Evaluation was conducted by counting the number of live aphids per plant under a microscope. Percent Control was measured by using Abbott's correction formula (W.S. Abbott, “A Method of Computing the Effectiveness of an Insecticide” J. Econ. Entomol. 18 (1925), pp. 265-267) as follows.
Corrected % Control=100*(X−Y)/X • where • X=No. of live aphids on solvent check plants and • Y=No. of live aphids on treated plants

Data set [4] deals with Yellow Fever Mosquito (YFM) (Aedes aegypti). The conditions noted are these: about 1 day-old larvae, scored on mortality after 3 days. The procedure: Certain molecules disclosed in this document were tested against YFM using procedures described in the following paragraph. In the reporting of the results, the “YFM Rating Table” was used (See Table Section).
Master plates containing 400 μg of a molecule dissolved in 100 μL of dimethyl sulfoxide (DMSO) (equivalent to a 4000 ppm solution) are used. A master plate of assembled molecules contains 15 μL per well. To this plate, 135 μL of a 90:10 water:acetone mixture is added to each well. A robot (Biomek® NXP Laboratory Automation Workstation) is programmed to dispense 15 μL aspirations from the master plate into an empty 96-well shallow plate (“daughter” plate). There are 6 reps (“daughter” plates) created per master. The created daughter plates are then immediately infested with YFM larvae.
The day before plates are to be treated, mosquito eggs are placed in Millipore water containing liver powder to begin hatching (4 g. into 400 ml). After the daughter plates are created using the robot, they are infested with 220 μL of the liver powder/larval mosquito mixture (about 1 day-old larvae). After plates are infested with mosquito larvae, a non-evaporative lid is used to cover the plate to reduce drying. Plates are held at room temperature for 3 days prior to grading. After 3 days, each well is observed and scored based on mortality.

Regarding `CC(C)C(=O)OCS/C(=N\C(=O)Nc1ccc(-c2ncn(-c3ccc(OC(F)(F)C(F)(F)F)cc3)n2)cc1)Nc1ccccc1C(C)C` [Molecule A6, (Z)-((N-(2-Isopropylphenyl)-N′-((4-(1-(4-(pentafluoroethoxy)phenyl)-1H-1,2,4-triazol-3-yl)phenyl)carbamoyl)carbamimidoyl)thio)methyl isobutyrate], the mortality at 50 µg/cm2 in data set [1] (50 μg/cm2 on artificial diet) and in data set [2] was 50 to 100% each time. Also, the mortality at 200 ppm in data set [3] is 0%.

On to `Cc1ccccc1N/C(S)=N/C(=O)Nc1ccc(-c2ncn(-c3ccc(OC(F)(F)F)cc3)n2)cc1` [Molecule A80], for which the mortality at 50 µg/cm2 in data set [1] (50 μg/cm2 on artificial diet) and in data set [2] was 50 to 100% each time. For the same compound, in data set [4], the “Rating YFM (% Control (or Mortality))” value was “B (More than 0-Less than 80)”.

Take `COc1cc(C)c(N/C(=N/C(=O)Nc2ccc(-c3ncn(-c4ccc(OC(F)(F)F)cc4)n3)cc2)SCOC(=O)C(C)C)c(C)c1` [Molecule A7, (E)-(N′-(2,6-Dimethyl-4-methoxyphenyl)-N-(4-(1-(4-(trifluoromethyoxy)phenyl)-1H-1,2,4-triazol-3-yl)phenylcarbamoyl)carbamimidoylthio)methyl isobutyrate]: the mortality at 50 µg/cm2 in data set [1] (50 μg/cm2 on artificial diet) and in data set [2] was 50 to 100% throughout. For the same compound, the mortality at 200 ppm in data set [3] fell in the range of 0 to 80%.

As for `COc1ccc(N/C(=N/C(=O)Nc2ccc(-c3ncn(-c4ccc(C(F)(F)F)cc4)n3)cc2)SC)c(C)c1` [Molecule A2, (Z)-Methyl N-(4-methoxy-2-methylphenyl)-N′-((4-(1-(4-(trifluoromethyl)phenyl)-1H-1,2,4-triazol-3-yl)phenyl)carbamoyl)carbamimidothioate], the mortality at 50 µg/cm2 in data set [1] (50 μg/cm2 on artificial diet) and in data set [2] was 50 to 100% in each case. The mortality at 200 ppm in data set [3] was found to be 0%.

Turning to `Cc1cccc(C)c1N/C(S)=N/C(=O)Nc1ccc(-c2ncn(-c3ccc(OC(F)(F)F)cc3)n2)cc1` [Molecule A11], the mortality at 50 µg/cm2 in data set [1] (50 μg/cm2 on artificial diet) and in data set [2] was 50 to 100% in each case. The mortality at 200 ppm in data set [3] was in the range of 0 to 80%.

Regarding `Cc1cc(-c2ncn(-c3ccc(OC(F)(F)F)cc3)n2)ccc1NC(=O)/N=C(\S)Nc1ccccc1C(C)C` [Molecule A122], the mortality at 0.5 µg/cm2 in data set [1] lay within 50 to 100%. Further, in data set [2], the mortality at 50 µg/cm2 is 50 to 100%. Also, the “Rating YFM (% Control (or Mortality))” value in data set [4] is “A (80-100)”.

As for `COc1ccc(N/C(=N/C(=O)Nc2ccc(-c3ncn(-c4ccc(C(F)(F)F)cc4)n3)cc2)SCOC(=O)C(C)C)c(C)c1` [Molecule A1, (E)-((N′-(4-methoxy-2-methylphenyl)-N-((4-(1-(4-(trifluoromethyl)phenyl)-1H-1,2,4-triazol-3-yl)phenyl)carbamoyl)carbamimidoyl)thio) methyl isobutyrate], the mortality at 50 µg/cm2 in data set [1] (50 μg/cm2 on artificial diet) and in data set [2] was 50 to 100% each time. Besides, the mortality at 200 ppm in data set [3] worked out at 0%.

Regarding `CC(C)c1cccc(Cl)c1N1C(=O)CS/C1=N\C(=O)Nc1ccc(-c2ncn(-c3ccc(OC(F)(F)F)cc3)n2)cc1` [Molecule A85], in data set [1], the mortality at 0.5 µg/cm2 lay in the range of 50 to 100%. For the same compound, the mortality at 50 µg/cm2 in data set [2] is 50 to 100%. Moreover, the “Rating YFM (% Control (or Mortality))” value in data set [4] is reported as “A (80-100)”.

For the compound `Cc1ccc(N2C(=O)CS/C2=N\C(=O)Nc2ccc(-c3ncn(-c4ccc(OC(F)(F)F)cc4)n3)cc2)c(Cl)c1` [Molecule A77], the mortality at 0.5 µg/cm2 in data set [1] lay within 50 to 100%. For the same compound, in data set [2], the mortality at 50 µg/cm2 is 50 to 100%. Also, the “Rating YFM (% Control (or Mortality))” value in data set [4] is “B (More than 0-Less than 80)”.

Consider “(E)-((N′-(4-Methoxy-2,6-dimethylphenyl)-N-((4-(1-(4-(trifluoromethyl)phenyl)-1H-1,2,4-triazol-3-yl)phenyl)carbamoyl) carbamimidoyl)thio)methyl 2-(((benzyloxy)carbonyl)amino)acetate [Molecule A9]”, for which, in data set [1] (50 μg/cm2 on artificial diet), the “Rating CEW (% Control (or Mortality))” value is recorded as “A (50-100)”. Besides, in data set [2], the “Rating BAW (% Control (or Mortality))” value is listed as “A (50-100)”. Besides, in data set [3], the “Rating GPA (% Control (or Mortality))” value was “B (More than 0-Less than 80)”.

With `Cc1ccccc1N/C(S)=C/C(=O)Nc1ccc(-c2ncn(-c3ccc(OC(F)(F)F)cc3)n2)cc1` [Molecule A22, 3-thioxo-3-(o-tolylamino)-N-(4-(1-(4-(trifluoromethoxy)phenyl)-1H-1,2,4-triazol-3-yl)phenyl)propanamide], the mortality at 50 µg/cm2 in data set [1] (50 μg/cm2 on artificial diet) and in data set [2] was 50 to 100% in each case. Moreover, the mortality at 200 ppm in data set [3] turned out to be 0%.

Regarding `Cc1cccc(C)c1N/C(S)=C(\C#N)C(=O)Nc1ccc(-c2ncn(-c3ccc(OC(F)(F)F)cc3)n2)cc1` [Molecule A28, (Z)-2-Cyano-3-mercapto-3-((2,6-dimethylphenyl)amino)-N-(4-(1-(4-(trifluoromethoxy)phenyl)-1H-1,2,4-triazol-3-yl)phenyl)acrylamide], the figures for the mortality at 50 µg/cm2 in data set [1] (50 μg/cm2 on artificial diet) and in data set [2] were 50 to 100% and 0%, respectively. Further, the “Rating YFM (% Control (or Mortality))” value in data set [4] is given as “D (No activity noticed in this bioassay)”.

Consider `COc1ccc(N/C(O)=C/C(=O)Nc2ccc(-c3ncn(-c4ccc(OC(F)(F)F)cc4)n3)cc2)c(C)c1` [Molecule A33, (Z)-3-hydroxy-3-(4-methoxy-2-methylphenylamino)-N-(4-(1-(4-(trifluoromethoxy)phenyl)-1H-1,2,4-triazol-3-yl)phenyl)acrylamide], for which the mortality at 50 µg/cm2 in data set [1] (50 μg/cm2 on artificial diet) and in data set [2] was 50 to 100% in each case. The mortality at 200 ppm in data set [3] was in the range of 0 to 80%.

Turning to `Cc1cccc(C)c1N/C(O)=C/C(=O)Nc1ccc(-c2ncn(-c3ccc(OC(F)(F)F)cc3)n2)cc1` [Molecule A32, (Z)-3-(2,6-dimethylphenylamino)-3-hydroxy-I-(4-(1-(4-(trifluoromethoxy)phenyl)-1H-1,2,4-triazol-3-yl)phenyl)acrylamide], the mortality at 50 µg/cm2 in data set [1] (50 μg/cm2 on artificial diet) and in data set [2] was 50 to 100% in each case. The mortality at 200 ppm in data set [3] is 0%.

Regarding `CCCc1ccccc1N1C(=O)CS/C1=N\C(=O)Nc1ccc(-c2ncn(-c3ccc(OC(F)(F)F)cc3)n2)cc1` [Molecule A69], in data set [1], the mortality at 0.5 µg/cm2 is 50 to 100%. Moreover, the mortality at 50 µg/cm2 in data set [2] fell in the range of 50 to 100%. Also, in data set [4], the “Rating YFM (% Control (or Mortality))” value is given as “A (80-100)”.

For the compound `Cc1cccc(C)c1N/C(S)=N/C(=O)Nc1ccc(-c2ncn(-c3ccc(C(F)(F)F)cc3)n2)cc1` [Molecule A12], the mortality at 50 µg/cm2 in data set [1] (50 μg/cm2 on artificial diet) and in data set [2] was 50 to 100% in each case. The mortality at 200 ppm in data set [3] came out at 0%.

For the compound `CCC(C)c1ccccc1N1C(=O)CS/C1=N\C(=O)Nc1ccc(-c2ncn(-c3ccc(OC(F)(F)F)cc3)n2)cc1` (stereo not drawn) [Molecule A18, (Z)-1-(3-(2-(sec-butyl)phenyl)-4-oxothiazolidin-2-ylidene)-3-(4-(1-(4-(trifluoromethoxy)phenyl)-1H-1,2,4-triazol-3-yl)phenyl)urea], the mortality at 50 µg/cm2 in data set [1] (50 μg/cm2 on artificial diet) and in data set [2] was 50 to 100% in each case. Moreover, the “Rating YFM (% Control (or Mortality))” value in data set [4] is recorded as “A (80-100)”.

With `CC(=O)/C(C(=O)Nc1ccc(-c2ncn(-c3ccc(OC(F)(F)F)cc3)n2)cc1)=C(/S)Nc1ccccc1C(C)C` [Molecule A20, (E)-3-hydroxy-2-((2-isopropylphenyl)carbamothioyl)-N-(4-(1-(4-(trifluoromethoxy)phenyl)-1H-1,2,4-triazol-3-yl)phenyl)but-2-enamide], the mortality at 50 µg/cm2 in data set [1] (50 μg/cm2 on artificial diet) and in data set [2] was 50 to 100% each time. Besides, in data set [3], the mortality at 200 ppm came to 0%.
